This note sets out measurements from US20090299044A1 (priority 2006, published 2009).

One assay concerns the target T1, human Kv1.3 (CHO) (Homo sapiens, UniProt P22001).
T1 construct: expressed in transfected cells; host or cells: CHO
Kind of assay: cell-based.

The target of the next assay is T2, human Kv1.1 (HEK293) (Homo sapiens, UniProt Q09470).
T2 construct: expressed in transfected cells; host or cells: HEK293
In words: cell-based.

Bridge positions count the residues as written; N and C are the ends. Peptide text beside a SMILES is read from it. Where only a bound is given, the exact number is not on record here.

T2 sequence (Q09470 whole entry): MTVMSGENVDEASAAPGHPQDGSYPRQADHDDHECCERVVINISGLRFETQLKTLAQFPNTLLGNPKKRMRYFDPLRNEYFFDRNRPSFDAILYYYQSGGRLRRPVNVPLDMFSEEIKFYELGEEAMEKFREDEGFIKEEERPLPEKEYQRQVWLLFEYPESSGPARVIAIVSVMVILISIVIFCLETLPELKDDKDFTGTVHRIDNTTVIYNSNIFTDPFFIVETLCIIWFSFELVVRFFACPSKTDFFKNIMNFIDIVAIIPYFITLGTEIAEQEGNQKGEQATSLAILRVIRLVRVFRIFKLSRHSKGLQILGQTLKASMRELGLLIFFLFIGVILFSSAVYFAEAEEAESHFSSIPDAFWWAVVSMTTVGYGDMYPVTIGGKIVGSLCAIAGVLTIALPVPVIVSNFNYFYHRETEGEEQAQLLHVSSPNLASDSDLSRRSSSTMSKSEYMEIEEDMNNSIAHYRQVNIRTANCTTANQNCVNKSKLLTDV
T1 sequence (P22001 whole entry): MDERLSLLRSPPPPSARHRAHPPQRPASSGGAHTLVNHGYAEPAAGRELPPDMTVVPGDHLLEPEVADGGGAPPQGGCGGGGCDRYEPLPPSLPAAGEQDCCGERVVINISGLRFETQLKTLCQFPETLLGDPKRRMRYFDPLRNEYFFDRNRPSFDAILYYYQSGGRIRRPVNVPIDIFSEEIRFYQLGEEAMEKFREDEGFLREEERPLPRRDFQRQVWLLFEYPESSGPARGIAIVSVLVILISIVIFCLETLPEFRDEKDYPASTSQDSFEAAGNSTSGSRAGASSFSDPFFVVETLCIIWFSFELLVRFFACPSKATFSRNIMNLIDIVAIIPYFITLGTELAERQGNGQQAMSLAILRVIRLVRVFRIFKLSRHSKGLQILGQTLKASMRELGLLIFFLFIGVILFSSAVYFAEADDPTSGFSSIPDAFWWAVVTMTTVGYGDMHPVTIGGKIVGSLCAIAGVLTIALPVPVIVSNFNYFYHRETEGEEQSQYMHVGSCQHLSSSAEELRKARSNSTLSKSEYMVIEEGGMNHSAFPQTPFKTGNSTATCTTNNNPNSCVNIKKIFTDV

Regarding `CC[C@H](C)[C@@H]1NC(=O)[C@H](CCCCN)NC(=O)[C@@H](NC(=O)[C@H](CCCCN)NC(=O)[C@@H](NC(=O)[C@H](CC(N)=O)NC(=O)[C@@H](NC(=O)[C@@H](NC(=O)[C@@H](NC(=O)CN)C(C)C)[C@@H](C)CC)[C@@H](C)CC)C(C)C)CSSC[C@@H]2NC(=O)[C@H](CCCCN)NC(=O)CNC(=O)[C@H](Cc3ccccc3)NC(=O)[C@H](CCCNC(=N)N)NC(=O)[C@H](CCSC)NC(=O)[C@H](CCCNC(=N)N)NC(=O)[C@H](C)NC(=O)[C@H](CCCCN)NC(=O)[C@H](CCCCN)NC(=O)[C@@H]3CSSC[C@@H](C(=O)N[C@H](C(=O)N4CCC[C@H]4C(=O)N[C@@H](CCCCN)C(=O)O)[C@@H](C)O)NC(=O)[C@H](Cc4c[nH]cn4)NC(=O)[C@H](CSSC[C@H](NC(=O)[C@H](CCC(N)=O)NC(=O)[C@H](CCCNC(=N)N)NC(=O)[C@H](CO)NC1=O)C(=O)N[C@@H](CC(C)C)C(=O)N[C@@H](CCC(=O)O)C(=O)N1CCC[C@H]1C(=O)N3)NC(=O)[C@H](CCCCN)NC(=O)CNC(=O)[C@H](CC(N)=O)NC(=O)[C@H](CCSC)NC2=O` [G22R] (H-GVIINVKCKISRQCLEPCKKARMRFGKCMNGKCHCTPK-OH; disulfide 8-28, 14-33, 18-35), the results for the IC50 against human Kv1.3 (CHO) and at human Kv1.1 (HEK293) were 0.0237 nM and 0.00349 nM, respectively.
In the same order, the values of `CC[C@H](C)[C@@H]1NC(=O)[C@H](CCCCN)NC(=O)[C@@H](NC(=O)[C@H](CCCCN)NC(=O)[C@@H](NC(=O)[C@H](CC(N)=O)NC(=O)[C@@H](NC(=O)[C@@H](NC(=O)[C@@H](NC(=O)CN)C(C)C)[C@@H](C)CC)[C@@H](C)CC)C(C)C)CSSC[C@@H]2NC(=O)[C@H](CCCCN)NC(=O)[C@H](C)NC(=O)[C@H](Cc3ccccc3)NC(=O)[C@H](CCCNC(=N)N)NC(=O)[C@H](CCSC)NC(=O)CNC(=O)[C@H](C)NC(=O)[C@H](CCCCN)NC(=O)[C@H](CCCCN)NC(=O)[C@@H]3CSSC[C@@H](C(=O)N[C@H](C(=O)N4CCC[C@H]4C(=O)N[C@@H](CCCCN)C(=O)O)[C@@H](C)O)NC(=O)[C@H](Cc4c[nH]cn4)NC(=O)[C@H](CSSC[C@H](NC(=O)[C@H](CCC(N)=O)NC(=O)[C@H](CCCNC(=N)N)NC(=O)[C@H](CO)NC1=O)C(=O)N[C@@H](CC(C)C)C(=O)N[C@@H](CCC(=O)O)C(=O)N1CCC[C@H]1C(=O)N3)NC(=O)[C@H](CCCCN)NC(=O)CNC(=O)[C@H](CC(N)=O)NC(=O)[C@H](CCSC)NC2=O` [G26A] (H-GVIINVKCKISRQCLEPCKKAGMRFAKCMNGKCHCTPK-OH; disulfide 8-28, 14-33, 18-35) are 0.711 nM and 0.733 nM.
In the same order, the values of `CC[C@H](C)[C@@H]1NC(=O)[C@H](CCCCN)NC(=O)[C@@H](NC(=O)[C@H](CCCCN)NC(=O)[C@@H](NC(=O)[C@H](CC(N)=O)NC(=O)[C@@H](NC(=O)[C@@H](NC(=O)[C@@H](NC(=O)CN)C(C)C)[C@@H](C)CC)[C@@H](C)CC)C(C)C)CSSC[C@@H]2NC(=O)[C@H](CCCCN)NC(=O)[C@H](CCC(=O)O)NC(=O)[C@H](Cc3ccccc3)NC(=O)[C@H](CCCNC(=N)N)NC(=O)[C@H](CCSC)NC(=O)CNC(=O)[C@H](C)NC(=O)[C@H](CCCCN)NC(=O)[C@H](CCCCN)NC(=O)[C@@H]3CSSC[C@@H](C(=O)N[C@H](C(=O)N4CCC[C@H]4C(=O)N[C@@H](CCCCN)C(=O)O)[C@@H](C)O)NC(=O)[C@H](Cc4c[nH]cn4)NC(=O)[C@H](CSSC[C@H](NC(=O)[C@H](CCC(N)=O)NC(=O)[C@H](CCCNC(=N)N)NC(=O)[C@H](CO)NC1=O)C(=O)N[C@@H](CC(C)C)C(=O)N[C@@H](CCC(=O)O)C(=O)N1CCC[C@H]1C(=O)N3)NC(=O)[C@H](CCCCN)NC(=O)CNC(=O)[C@H](CC(N)=O)NC(=O)[C@H](CCSC)NC2=O` [G26E] (H-GVIINVKCKISRQCLEPCKKAGMRFEKCMNGKCHCTPK-OH; disulfide 8-28, 14-33, 18-35) are above 3.33 nM and above 3.33 nM.
`CC[C@H](C)[C@@H]1NC(=O)[C@H](CCCCN)NC(=O)[C@@H](NC(=O)[C@H](CCCCN)NC(=O)[C@@H](NC(=O)[C@H](CC(N)=O)NC(=O)[C@@H](NC(=O)[C@@H](NC(=O)[C@@H](NC(=O)CN)C(C)C)[C@@H](C)CC)[C@@H](C)CC)C(C)C)CSSC[C@@H]2NC(=O)[C@H](CCCCN)NC(=O)[C@H](CCCNC(=N)N)NC(=O)[C@H](Cc3ccccc3)NC(=O)[C@H](CCCNC(=N)N)NC(=O)[C@H](CCSC)NC(=O)CNC(=O)[C@H](C)NC(=O)[C@H](CCCCN)NC(=O)[C@H](CCCCN)NC(=O)[C@@H]3CSSC[C@@H](C(=O)N[C@H](C(=O)N4CCC[C@H]4C(=O)N[C@@H](CCCCN)C(=O)O)[C@@H](C)O)NC(=O)[C@H](Cc4c[nH]cn4)NC(=O)[C@H](CSSC[C@H](NC(=O)[C@H](CCC(N)=O)NC(=O)[C@H](CCCNC(=N)N)NC(=O)[C@H](CO)NC1=O)C(=O)N[C@@H](CC(C)C)C(=O)N[C@@H](CCC(=O)O)C(=O)N1CCC[C@H]1C(=O)N3)NC(=O)[C@H](CCCCN)NC(=O)CNC(=O)[C@H](CC(N)=O)NC(=O)[C@H](CCSC)NC2=O` [G26R] (H-GVIINVKCKISRQCLEPCKKAGMRFRKCMNGKCHCTPK-OH; disulfide 8-28, 14-33, 18-35): the IC50 against human Kv1.3 (CHO) and against human Kv1.1 (HEK293) was above 3.33 nM in each case.
`CC[C@H](C)[C@@H]1NC(=O)[C@H](CCCCN)NC(=O)[C@@H](NC(=O)[C@H](CCCCN)NC(=O)[C@@H](NC(=O)[C@H](CC(N)=O)NC(=O)[C@@H](NC(=O)[C@@H](NC(=O)[C@@H](NC(=O)CN)C(C)C)[C@@H](C)CC)[C@@H](C)CC)C(C)C)CSSC[C@@H]2NC(=O)[C@H](CCCCN)NC(=O)CNC(=O)[C@H](Cc3ccccc3)NC(=O)[C@H](CCCNC(=N)N)NC(=O)[C@H](CCSC)NC(=O)CNC(=O)[C@H](C)NC(=O)[C@H](CCCCN)NC(=O)[C@H](CCCCN)NC(=O)[C@@H]3CSSC[C@@H](C(=O)N[C@H](C(=O)N4CCC[C@H]4C(=O)N[C@@H](CCCCN)C(=O)O)[C@@H](C)O)NC(=O)[C@H](Cc4c[nH]cn4)NC(=O)[C@H](CSSC[C@H](NC(=O)[C@H](CCC(N)=O)NC(=O)[C@H](CCCNC(=N)N)NC(=O)[C@H](CO)NC1=O)C(=O)N[C@@H](CC(C)C)C(=O)N[C@@H](CCC(=O)O)C(=O)N1CCC[C@H]1C(=O)N3)NC(=O)[C@H](CCCCN)NC(=O)[C@H](C)NC(=O)[C@H](CC(N)=O)NC(=O)[C@H](CCSC)NC2=O` [G31A] (H-GVIINVKCKISRQCLEPCKKAGMRFGKCMNAKCHCTPK-OH; disulfide 8-28, 14-33, 18-35): the IC50 against human Kv1.3 (CHO) came out at 0.0702 nM; on human Kv1.1 (HEK293), 0.0618 nM.
Take `CC[C@H](C)[C@@H]1NC(=O)[C@H](CCCCN)NC(=O)[C@@H](NC(=O)[C@H](CCCCN)NC(=O)[C@@H](NC(=O)[C@H](CC(N)=O)NC(=O)[C@@H](NC(=O)[C@@H](NC(=O)[C@@H](NC(=O)CN)C(C)C)[C@@H](C)CC)[C@@H](C)CC)C(C)C)CSSC[C@@H]2NC(=O)[C@H](CCCCN)NC(=O)CNC(=O)[C@H](Cc3ccccc3)NC(=O)[C@H](CCCNC(=N)N)NC(=O)[C@H](CCSC)NC(=O)CNC(=O)[C@H](C)NC(=O)[C@H](CCCCN)NC(=O)[C@H](CCCCN)NC(=O)[C@@H]3CSSC[C@@H](C(=O)N[C@H](C(=O)N4CCC[C@H]4C(=O)N[C@@H](CCCCN)C(=O)O)[C@@H](C)O)NC(=O)[C@H](Cc4c[nH]cn4)NC(=O)[C@H](CSSC[C@H](NC(=O)[C@H](CCC(N)=O)NC(=O)[C@H](CCCNC(=N)N)NC(=O)[C@H](CO)NC1=O)C(=O)N[C@@H](CC(C)C)C(=O)N[C@@H](CCC(=O)O)C(=O)N1CCC[C@H]1C(=O)N3)NC(=O)[C@H](CCCCN)NC(=O)[C@H](CCC(=O)O)NC(=O)[C@H](CC(N)=O)NC(=O)[C@H](CCSC)NC2=O` [G31E] (H-GVIINVKCKISRQCLEPCKKAGMRFGKCMNEKCHCTPK-OH; disulfide 8-28, 14-33, 18-35): the values for the concentration for half-maximal inhibition (IC50) against human Kv1.3 (CHO) and against human Kv1.1 (HEK293) were 0.012 nM and 0.00237 nM, respectively.

A word on the IC50: it is the concentration that inhibits the measured activity by half. The low end stands for inhibition by little substance, the high end for a need for much substance.
